Laboratory results: PubChem BioAssay AID1845204 (Molecular Pharmacology Branch, DTP, NCI, 2023)

Test system: HSSY-II tumor spheroid viability
Assay: Anticancer human tumor HSSY-II cell line growth inhibition;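 note: spheroids exposed to compounds for seven days before reading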;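 for viability, T/C: percent of DMSO vehicle control viability so 100% = untreated level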
Settings: spheroids with HUVEC and MSC; for IC50: curve of first compound; for viability, T/C: stronger effect = lower value
Method in brief: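 Complex tumor spheroids combined malignant cells with endothelial cells and mesenchymal stem cells. DNA-damaging drugs and DNA repair inhibitors were tested alone and in combination, at half-log dilutions down from clinical Cmax (top 10 microM if Cmax unknown), 0.25% DMSO final.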

[1] = second compound 1 µM, first compound 0.00949 µM
[2] = second compound 1 µM, first compound 0.03 µM
[3] = second compound 1 µM, first compound 0.0949 µM
[4] = second compound 1 µM, first compound 0.3 µM
[5] = second compound 1 µM, first compound 0.949 µM
[6] = second compound 1 µM, first compound 3 µM
[7] = second compound 3.16 µM, first compound 0.00949 µM
[8] = second compound 3.16 µM, first compound 0.03 µM
[9] = second compound 3.16 µM, first compound 0.0949 µM
[10] = second compound 3.16 µM, first compound 0.3 µM
[11] = second compound 3.16 µM, first compound 0.949 µM
[12] = second compound 3.16 µM, first compound 3 µM
[13] = second compound 10 µM, first compound 0.00949 µM
[14] = second compound 10 µM, first compound 0.03 µM
[15] = second compound 10 µM, first compound 0.0949 µM
[16] = second compound 10 µM, first compound 0.3 µM
[17] = second compound 10 µM, first compound 0.949 µM
[18] = second compound 10 µM, first compound 3 µM
[19] = second compound 31.6 µM, first compound 0.00949 µM
[20] = second compound 31.6 µM, first compound 0.03 µM
[21] = second compound 31.6 µM, first compound 0.0949 µM
[22] = second compound 31.6 µM, first compound 0.3 µM
[23] = second compound 31.6 µM, first compound 0.949 µM
[24] = second compound 31.6 µM, first compound 3 µM
[25] = second compound 100 µM, first compound 0.00949 µM
[26] = second compound 100 µM, first compound 0.03 µM
[27] = second compound 100 µM, first compound 0.0949 µM
[28] = second compound 100 µM, first compound 0.3 µM
[29] = second compound 100 µM, first compound 0.949 µM
[30] = second compound 100 µM, first compound 3 µM

## CNCc1ccc(-c2cc(-c3nc(-c4ccc(S(=O)(=O)C(C)C)cc4)cnc3N)on2)cc1 + Cn1nnc2c(C(N)=O)ncn2c1=O
Second compound 1 µM
  IC50: 0.0441 µM
Second compound 3.16 µM
  IC50: 0.0499 µM
Second compound 10 µM
  IC50: 0.046 µM
Second compound 31.6 µM
  IC50: 0.047 µM
Second compound 100 µM
  IC50: 0.0427 µM
[1]
  viability, T/C: 96.8%
[2]
  viability, T/C: 70.5%
[3]
  viability, T/C: 9.33%
[4]
  viability, T/C: 4.77%
[5]
  viability, T/C: 1.51%
[6]
  viability, T/C: 0.14%
[7]
  viability, T/C: 98.4%
[8]
  viability, T/C: 81.4%
[9]
  viability, T/C: 10.3%
[10]
  viability, T/C: 4.71%
[11]
  viability, T/C: 1.26%
[12]
  viability, T/C: 0.11%
[13]
  viability, T/C: 102%
[14]
  viability, T/C: 74.7%
[15]
  viability, T/C: 8.12%
[16]
  viability, T/C: 5.47%
[17]
  viability, T/C: 1.58%
[18]
  viability, T/C: 0.12%
[19]
  viability, T/C: 100%
[20]
  viability, T/C: 75%
[21]
  viability, T/C: 10.7%
[22]
  viability, T/C: 4.8%
[23]
  viability, T/C: 2.03%
[24]
  viability, T/C: 0.15%
[25]
  viability, T/C: 91.3%
[26]
  viability, T/C: 69.4%
[27]
  viability, T/C: 5.96%
[28]
  viability, T/C: 4.82%
[29]
  viability, T/C: 1.42%
[30]
  viability, T/C: 0.2%

## Cc1sc2c(c1C)C(c1ccc(Cl)cc1)=NC(CC(=O)Nc1ccc(O)cc1)c1nnc(C)n1-2 (stereo not given) + Cn1nnc2c(C(N)=O)ncn2c1=O
Second compound 1 µM
  IC50: 0.164 µM
Second compound 3.16 µM
  IC50: 0.178 µM
Second compound 10 µM
  IC50: 0.158 µM
Second compound 31.6 µM
  IC50: 0.194 µM
Second compound 100 µM
  IC50: 0.169 µM
[1]
  viability, T/C: 98.5%
[2]
  viability, T/C: 85.1%
[3]
  viability, T/C: 64.7%
[4]
  viability, T/C: 34.3%
[5]
  viability, T/C: 19.3%
[6]
  viability, T/C: 12.8%
[7]
  viability, T/C: 101%
[8]
  viability, T/C: 90.6%
[9]
  viability, T/C: 65.9%
[10]
  viability, T/C: 35.9%
[11]
  viability, T/C: 21.6%
[12]
  viability, T/C: 12%
[13]
  viability, T/C: 101%
[14]
  viability, T/C: 92.9%
[15]
  viability, T/C: 62.3%
[16]
  viability, T/C: 32.6%
[17]
  viability, T/C: 20.1%
[18]
  viability, T/C: 11.2%
[19]
  viability, T/C: 105%
[20]
  viability, T/C: 98%
[21]
  viability, T/C: 69.3%
[22]
  viability, T/C: 37.3%
[23]
  viability, T/C: 18.7%
[24]
  viability, T/C: 8.46%
[25]
  viability, T/C: 98.1%
[26]
  viability, T/C: 89.5%
[27]
  viability, T/C: 68.7%
[28]
  viability, T/C: 31.2%
[29]
  viability, T/C: 13.2%
[30]
  viability, T/C: 5.25%

## Cn1ncnc1[C@H]1c2n[nH]c(=O)c3cc(F)cc(c23)N[C@@H]1c1ccc(F)cc1 + Cn1nnc2c(C(N)=O)ncn2c1=O
Second compound 1 µM
  IC50: 0.0881 µM
Second compound 3.16 µM
  IC50: 0.0417 µM
Second compound 10 µM
  IC50: 0.0211 µM
Second compound 31.6 µM
  IC50: < 0.00949 µM
Second compound 100 µM
  IC50: < 0.00949 µM
[1]
  viability, T/C: 86.8%
[2]
  viability, T/C: 68.6%
[3]
  viability, T/C: 52.6%
[4]
  viability, T/C: 20.8%
[5]
  viability, T/C: 10.8%
[6]
  viability, T/C: 6.39%
[7]
  viability, T/C: 83%
[8]
  viability, T/C: 50.1%
[9]
  viability, T/C: 45.6%
[10]
  viability, T/C: 15.5%
[11]
  viability, T/C: 9.89%
[12]
  viability, T/C: 8.35%
[13]
  viability, T/C: 70.3%
[14]
  viability, T/C: 41.2%
[15]
  viability, T/C: 15.4%
[16]
  viability, T/C: 10.5%
[17]
  viability, T/C: 8.29%
[18]
  viability, T/C: 6.47%
[19]
  viability, T/C: 20.1%
[20]
  viability, T/C: 10.9%
[21]
  viability, T/C: 9.75%
[22]
  viability, T/C: 8.55%
[23]
  viability, T/C: 7.6%
[24]
  viability, T/C: 4.67%
[25]
  viability, T/C: 8.89%
[26]
  viability, T/C: 7.52%
[27]
  viability, T/C: 8.61%
[28]
  viability, T/C: 7.59%
[29]
  viability, T/C: 6.58%
[30]
  viability, T/C: 5.25%

## O=C(c1cc(Cc2n[nH]c(=O)c3ccccc23)ccc1F)N1CCN(C(=O)C2CC2)CC1 + Cn1nnc2c(C(N)=O)ncn2c1=O
Second compound 1 µM
  IC50: 6.1 µM
Second compound 3.16 µM
  IC50: 3.28 µM
Second compound 10 µM
  IC50: 2.48 µM
Second compound 31.6 µM
  IC50: 0.751 µM
Second compound 100 µM
  IC50: < 0.0949 µM
[3]
  viability, T/C: 98%
[4]
  viability, T/C: 93.6%
[5]
  viability, T/C: 84.2%
[6]
  viability, T/C: 63.6%
Second compound 1 µM, first compound 9.49 µM
  viability, T/C: 23.9%
Second compound 1 µM, first compound 30 µM
  viability, T/C: 59.1%
[9]
  viability, T/C: 94.9%
[10]
  viability, T/C: 92.5%
[11]
  viability, T/C: 81.9%
[12]
  viability, T/C: 54.8%
Second compound 3.16 µM, first compound 9.49 µM
  viability, T/C: 20.1%
Second compound 3.16 µM, first compound 30 µM
  viability, T/C: 43.3%
[15]
  viability, T/C: 99.6%
[16]
  viability, T/C: 93.3%
[17]
  viability, T/C: 81.3%
[18]
  viability, T/C: 46.5%
Second compound 10 µM, first compound 9.49 µM
  viability, T/C: 12%
Second compound 10 µM, first compound 30 µM
  viability, T/C: 56.4%
[21]
  viability, T/C: 95.5%
[22]
  viability, T/C: 78.5%
[23]
  viability, T/C: 44%
[24]
  viability, T/C: 14%
Second compound 31.6 µM, first compound 9.49 µM
  viability, T/C: 11.3%
Second compound 31.6 µM, first compound 30 µM
  viability, T/C: 9.62%
[27]
  viability, T/C: 43.4%
[28]
  viability, T/C: 25.2%
[29]
  viability, T/C: 10.7%
[30]
  viability, T/C: 10.1%
Second compound 100 µM, first compound 9.49 µM
  viability, T/C: 8.27%
Second compound 100 µM, first compound 30 µM
  viability, T/C: 9.08%
